From US10941158B2, “Pyrazole ACC inhibitors and uses thereof” (Gilead Apollo, LLC, priority 2015, dated 2021) come the findings set out here.

Values after ≈ are worked out from the molar mass of the structure shown. Like-named read-outs stand apart in the source and are kept apart here. Bounds are passed on as bounds.

In assay [1] the test system is C. albicans ATCC 90028. Briefly: Anti-Fungal (Candida) Activity Assay, broth microtiter MIC. The format is cell-based. The following applies: read-out: MIC C. albicans ATCC 90028. An outline of the steps: (§1)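 Broth microdilution per CLSI M27-A3 in RPMI 1640 + MOPS, with inocula from colonies grown 24 h at 35 °C on Sabouraud dextrose agar and set by standard curve. Compounds came from 1 mg/mL DMSO stocks. MIC was read visually against the growth control at 48 h.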

Assay [2] deals with C. krusei ATCC 6258. The description is as above. The class given is cell-based. The following applies: Pichia kudriavzevii, read-out: MIC C. krusei ATCC 6258. An outline of the steps: as §1
Assay [3] deals with C. parapsilosis ATCC 22019. Described as above. The format is cell-based. The following applies: Lodderomyces parapsilosis, read-out: MIC C. parapsilosis ATCC 22019. The essentials:
as §1

Assay [4] deals with human (hACC2) ACC2 (Homo sapiens, UniProt O00763). The assay can be described thus: In vitro Acetyl-CoA Carboxylase (ACC) inhibition assay (ADP-Glo), hACC2. The format is biochemical. The procedure:
The detailed procedure is as follows. […] 10 μL ADP glo reagent was added. […] 20 μL kinase detection reagent was added.
“NA” stands for “not assayed.”

In assay [5] the test system is Diplodia maydis (Dm). The assay can be described thus: Growth inhibition assay of fungal pathogens. The format is cell-based. The following applies: Stenocarpella maydis, 48 h, read-out: Concentration at 90% Inhibition Dm. The essentials: (§2)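 Liquid-culture assay in which test compounds are applied at three final concentrations (50, 10, 2 ppm or 2, 0.4, 0.08 ppm). Inoculum levels follow 48 h growth curves for each fungus. Growth is monitored by OD600 and by eye, and the 48 h values give % inhibition against DMSO.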

For assay [6], the system named is Fusarium virguliforme (Fv). The assay can be described thus: Growth inhibition assay of fungal pathogens. The format is cell-based. The following applies: 48 h, 48 hours, read-out: Concentration at 90% Inhibition Fv. The essentials:
(§3)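 Percent growth inhibition was derived from 48 h OD600 and visual scores relative to 2% DMSO, with blank background subtraction. Fungi were grown from spores in 17% V8 liquid medium, R. solani from 1.5 mm plugs in ¼ PDB, with compound at final 50/10/2 or 2/0.4/0.08 ppm.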

The subject of assay [7] is Phytophthora capsici (Pc). Briefly: Growth inhibition assay of fungal pathogens. The format is cell-based. The following applies: 48 hours. The essentials:
as §3

The test system of assay [8] is Fusarium moniliforme (Fm). The assay can be described thus: Growth inhibition assay of fungal pathogens. The format is cell-based. The following applies: Fusarium verticillioides, 48 h, 48 hours, read-out: Concentration at 90% Inhibition Fm. The essentials:
as §2

Assay [9] has as its system Botrtyis cinerea (Bc). The assay can be described thus: Growth inhibition assay of fungal pathogens. The following applies: 48 h, read-out: Concentration at 90% Inhibition Bc. The class given is cell-based. An outline of the steps:
as §2

The test system of assay [10] is Rhizoctonia solani (Rs). Briefly: Growth inhibition assay of fungal pathogens. The format is cell-based. The following applies: 48 h, read-out: Concentration at 90% Inhibition Rs. An outline of the steps: as §2
In assay [11] the test system is Septoria tritici (St). The assay can be described thus: Growth inhibition assay of fungal pathogens. The class given is cell-based. The following applies: 48 hours. An outline of the steps:
as §3

Assay [12] concerns Collectotrichum graminicola (Cg). The assay can be described thus: Growth inhibition assay of fungal pathogens. The class given is cell-based. The following applies: 48 h, read-out: Concentration at 90% Inhibition Cg. An outline of the steps:
as §3

The target in assay [13] is fungal (fACC2) ACC2 (UniProt Q00955). The following applies: read-out: fACC2 IC50; fungal ACC2, ADP-Glo. A general note: ADP-Glo first removes unused ATP, then detects ADP through luciferase.
Description: An exemplary procedure for the in vitro ACC inhibition assay, which can be used to determine the inhibitory action of compounds of the invention toward either human (hACC2) or fungal (fACC2) ACC2, follows. The ADP-Glo™ Kinase Assay kit from Promega was used. The ADP-Glo™ Kinase Assay is a luminescent ADP detection assay to measure enzymatic activity by quantifying the amount of ADP produced during an enzyme reaction. The assay is performed in two steps; first, after the enzyme reaction, an equal volume of ADP-Glo™ Reagent is added to terminate the reaction and deplete the remaining ATP. Second, the Kinase Detection Reagent is added to simultaneously convert ADP to ATP and allow the newly synthesized ATP to be measured using a luciferase/luciferin reaction. Luminescence can be correlated to ADP concentrations by using an ATP-to-ADP conversion curve. The detailed procedure is as follows. 50 μL of the compound being tested (600 μM in DMSO) was added to a 384-well dilution plate. The compound was diluted 1:3 in succession in DMSO for each row for 11 wells. 0.5 μL ACC2 working solution was added to 384-well white Optiplate assay plate. 0.5 μL diluted compound solution in each column from step 2 was added to assay plate, each row containing 2 replicates. […] The plates were incubated at room temperature for 15 minutes. 5 μL substrate working solution was added to each well to initiate reaction. Final ACC2 reaction concentrations consist of: 5 nM ACC2, 20 μM ATP, 20 μM acetyl-CoA, 12 mM NaHCO3, 0.01% Brij35, 2 mM DTT, 5% DMSO, test compound concentrations: 30 μM, 10 μM, 3.33 μM, 1.11 μM, 0.37 μM, 0.123 μM, 0.0411 μM, 0.0137 μM, 0.00457 μM, 0.00152 μM, and 0.00051 μM. Plates were incubated at room temperature for 60 minutes. 10 μL ADP glo reagent was added. Plates were incubated at room temperature for 40 minutes. 20 μL kinase detection reagent was added. Plates were incubated at room temperature for 40 minutes, and then read on a Perkin Elmer EnVision 2104 plate reader for luminescence as Relative Light Units (RLU).
Data for each concentration, as well as the positive and negative controls were averaged, and the standard deviation calculated. Percent inhibition was calculated by the formula: 100×(average negative control−compound)/(average negative control−average positive control). The IC50 for each compound was calculated by fitting the data with a non-linear regression equation: Y=Bottom+(Top-Bottom)/(1+10^((Log IC50−X)*Hill Slope)), where X is the log of compound concentration and Y is percent inhibition.
Compounds having an activity designated as “AA” provided an IC50 0.0006-0.003 μM; provided an “A” provided an IC50 0.003-0.01 μM; compounds having an activity designated as “B” provided an IC50 0.01-0.04 μM; and compounds having an activity designated as “C” provided an IC50>0.04 μM IC50. “NA” stands for “not assayed.”
The mark [14] stands for this setting: ATCC90028, 3 replicates, MIC recorded at 48 h.
[15] abbreviates: ATCC6258, 3 replicates, MIC recorded at 48 h.
The mark [16] stands for this setting: ATCC22019, 3 replicates, MIC recorded at 48 h.

Sequence of human (hACC2) ACC2 (O00763 whole entry): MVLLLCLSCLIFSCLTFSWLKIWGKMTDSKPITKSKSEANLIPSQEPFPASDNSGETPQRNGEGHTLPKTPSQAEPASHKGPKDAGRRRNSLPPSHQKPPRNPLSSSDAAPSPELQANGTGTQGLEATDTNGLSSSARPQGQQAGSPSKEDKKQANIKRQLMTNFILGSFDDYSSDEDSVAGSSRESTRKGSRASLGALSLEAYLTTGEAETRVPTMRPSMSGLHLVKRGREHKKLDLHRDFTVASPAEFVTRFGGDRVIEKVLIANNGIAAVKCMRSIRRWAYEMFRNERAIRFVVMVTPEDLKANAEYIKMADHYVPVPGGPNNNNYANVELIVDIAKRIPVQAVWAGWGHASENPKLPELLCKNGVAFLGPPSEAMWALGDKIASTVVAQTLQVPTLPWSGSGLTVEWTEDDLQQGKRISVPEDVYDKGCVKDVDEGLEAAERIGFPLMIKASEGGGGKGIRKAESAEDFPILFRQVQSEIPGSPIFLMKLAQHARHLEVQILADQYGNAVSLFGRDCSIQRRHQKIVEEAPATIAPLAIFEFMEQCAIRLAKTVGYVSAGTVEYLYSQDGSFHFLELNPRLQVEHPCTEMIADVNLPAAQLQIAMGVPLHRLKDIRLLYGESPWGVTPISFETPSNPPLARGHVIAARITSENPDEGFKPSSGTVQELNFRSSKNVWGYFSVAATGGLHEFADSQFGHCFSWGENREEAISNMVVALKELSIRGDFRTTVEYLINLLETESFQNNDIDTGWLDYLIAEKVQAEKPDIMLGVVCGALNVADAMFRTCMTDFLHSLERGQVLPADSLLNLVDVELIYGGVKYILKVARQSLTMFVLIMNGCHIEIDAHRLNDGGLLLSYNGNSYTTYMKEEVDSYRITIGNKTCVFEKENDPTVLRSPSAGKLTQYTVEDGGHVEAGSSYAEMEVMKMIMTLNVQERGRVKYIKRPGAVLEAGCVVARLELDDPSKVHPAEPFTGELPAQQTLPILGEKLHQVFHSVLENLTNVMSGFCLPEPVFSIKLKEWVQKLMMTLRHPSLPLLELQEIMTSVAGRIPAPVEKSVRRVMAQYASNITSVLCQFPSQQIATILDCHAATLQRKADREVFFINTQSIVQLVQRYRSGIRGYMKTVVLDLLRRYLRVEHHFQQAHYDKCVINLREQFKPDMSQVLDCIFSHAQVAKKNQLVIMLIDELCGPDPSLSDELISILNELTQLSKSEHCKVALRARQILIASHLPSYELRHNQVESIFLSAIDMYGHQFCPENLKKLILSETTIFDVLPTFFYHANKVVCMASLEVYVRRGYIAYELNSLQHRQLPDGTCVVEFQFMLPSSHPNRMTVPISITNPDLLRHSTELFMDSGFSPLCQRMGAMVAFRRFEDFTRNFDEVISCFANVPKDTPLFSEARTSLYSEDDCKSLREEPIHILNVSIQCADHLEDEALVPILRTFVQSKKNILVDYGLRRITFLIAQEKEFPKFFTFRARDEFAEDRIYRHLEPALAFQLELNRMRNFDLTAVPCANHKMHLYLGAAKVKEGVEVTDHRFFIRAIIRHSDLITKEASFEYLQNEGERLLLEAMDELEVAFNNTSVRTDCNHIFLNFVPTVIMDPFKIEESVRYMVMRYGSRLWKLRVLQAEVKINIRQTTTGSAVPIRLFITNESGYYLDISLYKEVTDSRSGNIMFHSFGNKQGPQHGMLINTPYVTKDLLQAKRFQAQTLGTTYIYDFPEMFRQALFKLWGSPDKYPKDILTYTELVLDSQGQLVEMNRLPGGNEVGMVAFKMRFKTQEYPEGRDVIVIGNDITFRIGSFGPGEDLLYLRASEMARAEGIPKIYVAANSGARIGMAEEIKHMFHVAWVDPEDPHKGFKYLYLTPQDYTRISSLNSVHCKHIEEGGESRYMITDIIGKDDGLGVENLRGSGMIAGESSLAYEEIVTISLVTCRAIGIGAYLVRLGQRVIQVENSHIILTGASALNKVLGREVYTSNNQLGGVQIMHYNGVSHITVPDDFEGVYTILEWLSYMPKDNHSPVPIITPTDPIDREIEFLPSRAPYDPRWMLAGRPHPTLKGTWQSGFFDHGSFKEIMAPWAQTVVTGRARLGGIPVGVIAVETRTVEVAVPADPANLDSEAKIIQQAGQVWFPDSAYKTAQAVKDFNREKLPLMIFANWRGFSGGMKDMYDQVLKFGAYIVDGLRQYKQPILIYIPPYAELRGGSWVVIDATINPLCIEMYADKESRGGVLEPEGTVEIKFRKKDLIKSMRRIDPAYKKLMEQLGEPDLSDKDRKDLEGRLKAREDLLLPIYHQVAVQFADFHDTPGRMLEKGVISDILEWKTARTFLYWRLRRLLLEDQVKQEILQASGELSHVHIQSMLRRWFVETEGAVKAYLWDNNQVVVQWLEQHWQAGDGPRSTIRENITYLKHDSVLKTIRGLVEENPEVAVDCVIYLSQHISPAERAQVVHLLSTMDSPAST
Sequence of fungal (fACC2) ACC2 (Q00955 whole entry): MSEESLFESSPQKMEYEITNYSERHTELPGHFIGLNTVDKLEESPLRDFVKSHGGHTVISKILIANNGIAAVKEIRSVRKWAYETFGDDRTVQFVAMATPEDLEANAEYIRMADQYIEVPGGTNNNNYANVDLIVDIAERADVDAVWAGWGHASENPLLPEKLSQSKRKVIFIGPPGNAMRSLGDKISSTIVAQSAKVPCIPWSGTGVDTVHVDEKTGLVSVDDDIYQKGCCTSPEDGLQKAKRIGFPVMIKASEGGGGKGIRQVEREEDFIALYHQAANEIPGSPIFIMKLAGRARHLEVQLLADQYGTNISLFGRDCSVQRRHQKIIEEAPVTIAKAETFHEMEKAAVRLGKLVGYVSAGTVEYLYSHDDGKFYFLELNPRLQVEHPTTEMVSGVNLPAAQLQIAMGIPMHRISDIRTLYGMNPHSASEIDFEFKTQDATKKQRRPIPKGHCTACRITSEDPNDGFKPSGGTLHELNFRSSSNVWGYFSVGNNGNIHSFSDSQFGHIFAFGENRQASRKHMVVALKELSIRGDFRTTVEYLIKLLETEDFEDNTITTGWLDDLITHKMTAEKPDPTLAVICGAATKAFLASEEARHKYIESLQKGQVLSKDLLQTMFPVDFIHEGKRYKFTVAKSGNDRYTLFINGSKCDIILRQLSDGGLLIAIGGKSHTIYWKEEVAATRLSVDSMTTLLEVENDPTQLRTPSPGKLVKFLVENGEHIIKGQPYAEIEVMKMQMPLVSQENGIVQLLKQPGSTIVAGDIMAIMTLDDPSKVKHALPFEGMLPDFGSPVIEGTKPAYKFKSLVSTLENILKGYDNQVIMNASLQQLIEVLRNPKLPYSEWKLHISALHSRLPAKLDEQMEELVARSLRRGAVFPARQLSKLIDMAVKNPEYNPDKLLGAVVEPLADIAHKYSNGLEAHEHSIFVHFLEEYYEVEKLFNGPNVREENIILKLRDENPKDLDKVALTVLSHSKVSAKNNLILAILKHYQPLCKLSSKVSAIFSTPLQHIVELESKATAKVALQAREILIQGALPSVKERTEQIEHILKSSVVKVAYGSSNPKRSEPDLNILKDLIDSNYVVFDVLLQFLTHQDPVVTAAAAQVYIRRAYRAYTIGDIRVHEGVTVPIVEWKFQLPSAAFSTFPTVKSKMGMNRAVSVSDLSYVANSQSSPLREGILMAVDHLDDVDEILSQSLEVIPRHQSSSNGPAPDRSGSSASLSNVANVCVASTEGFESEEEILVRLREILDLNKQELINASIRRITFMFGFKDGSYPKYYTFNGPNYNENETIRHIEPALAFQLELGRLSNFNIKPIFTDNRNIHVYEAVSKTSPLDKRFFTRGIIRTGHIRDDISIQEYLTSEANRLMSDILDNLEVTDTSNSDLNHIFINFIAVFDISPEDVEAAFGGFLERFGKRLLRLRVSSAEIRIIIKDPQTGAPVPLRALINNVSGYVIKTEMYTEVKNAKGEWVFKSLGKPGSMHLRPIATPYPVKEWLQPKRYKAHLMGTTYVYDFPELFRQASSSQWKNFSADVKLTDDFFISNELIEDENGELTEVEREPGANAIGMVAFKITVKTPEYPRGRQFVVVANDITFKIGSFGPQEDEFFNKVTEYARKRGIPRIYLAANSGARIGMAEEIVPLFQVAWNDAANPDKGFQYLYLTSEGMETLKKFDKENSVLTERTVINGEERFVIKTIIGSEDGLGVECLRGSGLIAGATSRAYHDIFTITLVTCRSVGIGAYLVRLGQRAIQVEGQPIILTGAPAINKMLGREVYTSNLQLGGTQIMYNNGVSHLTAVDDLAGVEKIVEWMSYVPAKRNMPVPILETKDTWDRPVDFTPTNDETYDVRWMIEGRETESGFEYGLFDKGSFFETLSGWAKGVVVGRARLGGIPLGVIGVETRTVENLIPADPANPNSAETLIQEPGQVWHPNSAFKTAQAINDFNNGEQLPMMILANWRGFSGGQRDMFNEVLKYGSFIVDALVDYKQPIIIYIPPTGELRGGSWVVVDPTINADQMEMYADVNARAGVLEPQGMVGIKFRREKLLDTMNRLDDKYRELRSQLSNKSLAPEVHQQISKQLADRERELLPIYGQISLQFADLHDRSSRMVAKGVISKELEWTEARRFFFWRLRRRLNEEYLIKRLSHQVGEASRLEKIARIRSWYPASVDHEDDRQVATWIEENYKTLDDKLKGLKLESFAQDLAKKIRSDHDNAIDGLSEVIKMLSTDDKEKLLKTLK

The MIC is the lowest concentration found to suppress growth. Usually IC50 stands for the concentration that gives 50% inhibition. For `COc1ccc(F)cc1[C@H](Cn1c(=O)n(C(C)(C)C(=O)NC(C)C)c(=O)c2c(C)c(-n3cccn3)sc21)OC(C)C.I` [Compound I-1, (R)-2-(I-(2-(5-fluoro-2-methoxyphenyl)-2-isopropoxyethyl)-5-methyl-2,4-dioxo-6-(1H-pyrazol-1-yl)-1,4-dihydrothieno[2,3-d]pyrimidin-3(2H)-yl)-N-isopropyl-2-methylpropanamide], the values for the MIC in [1] (setting [14]), in assay [2] (setting [15]) and in [3] (setting [16]) were 2.1 to 4 µg/mL, 0.25 to 1 µg/mL and 2.1 to 4 µg/mL, respectively. Also, the 50% inhibitory concentration (IC50) in assay [4] was 10 to 40 nM; in assay [13] it was 0.6 to 3 nM. Besides, the IC90 in assay [5] (Table 4a) is 2 µg/mL; in [5] (Table 4b), 2 µg/mL; in [6] (Table 4a), 0.4 µg/mL; in [6] (Table 4b), 0.4 µg/mL; in assay [7] (Phytophthora capsici, Table 4a, read-out: Concentration at 90% Inhibition Pc), greater than 50 µg/mL; in assay [8] (Table 4a), 0.08 µg/mL. In addition, the IC90 was 0.08 µg/mL in assay [8] (Table 4b); 0.4 µg/mL in [9] (Table 4a); 0.4 µg/mL in [9] (Table 4b); 2 µg/mL in assay [10] (Table 4a); 2 µg/mL in [10] (Table 4b); greater than 50 µg/mL in assay [11] (Zymoseptoria tritici, Table 4a, read-out: Concentration at 90% Inhibition St). For the same molecule, the IC90 in assay [12] (Table 4a) and in [12] (Table 4b) was 2 µg/mL throughout. The “Concentration at 90% Inhibition Pc” value in assay [7] (Table 4b) is on record as “D (“D” provided a compound concentration of >50 ppm at 90% inhibition of fungal pathogens)”. For the same molecule, the “Concentration at 90% Inhibition St” value in [11] (Table 4b) was “D (“D” provided a compound concentration of >50 ppm at 90% inhibition of fungal pathogens)”.
`COCCOc1ccc(F)cc1[C@H](Cn1c(=O)n(C(C)(C)C(=O)O)c(=O)c2c(C)c(-n3cccn3)sc21)OC(C)C` [Compound I-64]: the MIC in [1] (setting [14]), in [2] (setting [15]) and in [3] (setting [16]) was greater than 4.1 µg/mL each time. The IC50 lay within 3 to 10 nM in assay [4] and 0.6 to 3 nM in assay [13].
Take `COc1ccc(F)cc1[C@H](Cn1c(=O)n(C(C)C(=O)O)c(=O)c2c(C)c(-n3cccn3)sc21)OCC(C)=O` (stereo partly shown) [Compound I-65]: the MIC in assay [1] (setting [14]), in [2] (setting [15]) and in assay [3] (setting [16]) was greater than 4.1 µg/mL throughout. Besides, the IC50 in assay [4] was in the range of 10 to 40 nM; in assay [13] it was 3 to 10 nM.
For `COc1ccc(F)cc1[C@H](Cn1c(=O)n(C(C)C(=O)N2CCCC2)c(=O)c2c(C)c(-n3cccn3)sc21)OCC(C)(C)O` (stereo partly shown) [Compound I-66], the MIC in assay [1] (setting [14]), in [2] (setting [15]) and in assay [3] (setting [16]) was greater than 4.1 µg/mL each time. The results for the IC50 in [4] and in assay [13] were 10 to 40 nM and 0.6 to 3 nM, respectively.
Turning to `COc1ccc(F)cc1[C@H](Cn1c(=O)n(C(C)C(=O)NC(C)C)c(=O)c2c(C)c(-n3cccn3)sc21)OCC(C)(C)O` (stereo partly shown) [Compound I-67], the MIC in assay [1] (setting [14]), in [2] (setting [15]) and in assay [3] (setting [16]) was greater than 4.1 µg/mL throughout. Further, the IC50 in [4] fell in the range of 10 to 40 nM; in assay [13], 0.6 to 3 nM.
With `COc1ccc(F)cc1[C@H](Cn1c(=O)n(C(C)C(N)=O)c(=O)c2c(C)c(-n3cccn3)sc21)OCC(C)(C)O` (stereo partly shown) [Compound I-68], the MIC in assay [1] (setting [14]), in [2] (setting [15]) and in [3] (setting [16]) was greater than 4.1 µg/mL each time. The IC50 in [4] lay within 10 to 40 nM; in assay [13] it was 0.6 to 3 nM.
Turning to `COCCCO[C@@H](Cn1c(=O)n(C(C)C(=O)NC(C)C)c(=O)c2c(C)c(-n3cccn3)sc21)c1cc(F)ccc1OC` (stereo partly shown) [Compound I-69], the MIC in [1] (setting [14]), in assay [2] (setting [15]) and in assay [3] (setting [16]) was greater than 4.1 µg/mL in each case. Further, the IC50 in assay [4] was in the range of 10 to 40 nM; in assay [13], 0.6 to 3 nM.
Consider `COCCCO[C@@H](Cn1c(=O)n(C(C)C(=O)N2CCCC2)c(=O)c2c(C)c(-n3cccn3)sc21)c1cc(F)ccc1OC` (stereo partly shown) [Compound I-70], for which the minimum inhibitory concentration (MIC) in assay [1] (setting [14]), in assay [2] (setting [15]) and in [3] (setting [16]) was greater than 4.1 µg/mL throughout. In addition, the half-inhibitory concentration (IC50) fell in the range of 10 to 40 nM in assay [4] and 0.6 to 3 nM in [13].
`COc1ccccc1[C@H](Cn1c(=O)n(C(C)(C)C(=O)O)c(=O)c2c(C)c(-n3cccn3)sc21)OC1CCOCC1` [Compound I-71]: the MIC in assay [1] (setting [14]), in [2] (setting [15]) and in assay [3] (setting [16]) was greater than 4.1 µg/mL in each case. Moreover, the values for the IC50 in assay [4] and in assay [13] were 10 to 40 nM and 0.6 to 3 nM, respectively.
As for `COc1ccccc1[C@H](Cn1c(=O)n(C(C)(C)C(=O)O)c(=O)c2c(C)c(-n3cccn3)sc21)O[C@H]1CC[C@@H](O)CC1` [Compound I-72], the MIC in assay [1] (setting [14]), in [2] (setting [15]) and in [3] (setting [16]) was greater than 4.1 µg/mL throughout. Besides, the IC50 in assay [4] was in the range of 3 to 10 nM; in assay [13], 0.6 to 3 nM.
Take `COCCO[C@@H](Cn1c(=O)n([C@@H](C)C(=O)NC(C)C)c(=O)c2c(C)c(-n3cccn3)sc21)c1cc(F)ccc1OC` [Compound I-73, (S)-2-(1-((R)-2-(5-fluoro-2-methoxyphenyl)-2-(2-methoxy-ethoxy)ethyl)-5-methyl-2,4-dioxo-6-(1H-pyrazol-1-yl)-1,4-dihydrothieno[2,3-d]pyrimidin-3(2H)-yl)-N-isopropylpropanamide]: the MIC in assay [1] (setting [14]) was 2.1 to 4 µg/mL (≈ 3.57 to 6.81 µM); in assay [2] (setting [15]), greater than 4.1 µg/mL; in [3] (setting [16]), 2.1 to 4 µg/mL (≈ 3.57 to 6.81 µM). Also, the IC50 was 3 to 10 nM in [4] and 0.6 to 3 nM in assay [13].
Regarding `COCCO[C@@H](Cn1c(=O)n([C@H](C)C(=O)NC(C)C)c(=O)c2c(C)c(-n3cccn3)sc21)c1cc(F)ccc1OC` [Compound I-74, (R)-2-(1-((R)-2-(5-fluoro-2-methoxyphenyl)-2-(2-methoxy-ethoxy)ethyl)-5-methyl-2,4-dioxo-6-(1H-pyrazol-1-yl)-1,4-dihydrothieno[2,3-d]pyrimidin-3(2H)-yl)-N-isopropylpropanamide], the MIC in [1] (setting [14]), in assay [2] (setting [15]) and in [3] (setting [16]) was greater than 4.1 µg/mL in each case. Moreover, the figures for the concentration for half-maximal inhibition (IC50) in assay [4] and in assay [13] were greater than 40 nM and 10 to 40 nM, respectively.
Consider `COc1ccccc1[C@H](Cn1c(=O)n(C(C)(C)C(=O)NC(C)C)c(=O)c2c(C)c(-n3cccn3)sc21)OCCC#N` [Compound I-80, (R)-2-(1-(2-(2-cyanoethoxy)-2-(2-methoxyphenyl)ethyl)-5-methyl-2,4-dioxo-6-(1H-pyrazol-1-yl)-1,4-dihydrothieno[2,3-d]pyrimidin-3(2H)-yl)-N-isopropyl-2-methylpropanamide], for which the MIC in assay [1] (ATCC90028, 48 h) was greater than 4.1 µg/mL; in assay [2] (ATCC6258, 48 h), greater than 4.1 µg/mL; in [3] (ATCC22019, 48 h) it was greater than 4.1 µg/mL. The figures for the IC50 in assay [4] and in assay [13] were 10 to 40 nM and 3 to 10 nM, respectively.
For `COc1ccccc1[C@H](Cn1c(=O)n(C(C)(C)C(N)=O)c(=O)c2c(C)c(-n3cccn3)sc21)OCCC#N` [Compound I-83], the MIC in assay [1] (setting [14]), in assay [2] (setting [15]) and in assay [3] (setting [16]) was greater than 4.1 µg/mL throughout. Besides, the half-maximal inhibitory concentration (IC50) in assay [4] fell in the range of 10 to 40 nM; in [13] it was 3 to 10 nM.
Turning to `COc1ccccc1[C@H](Cn1c(=O)n(C(C)(C)C(=O)N2CCCC2)c(=O)c2c(C)c(-n3cccn3)sc21)OCCC#N` [Compound I-84, (R)-3-(I-(2-methoxyphenyl)-2-(5-methyl-3-(2-methyl-1-oxo-1-(pyrrolidin-1-yl)propan-2-yl)-2,4-dioxo-6-(1H-pyrazol-1-yl)-3,4-dihydrothieno[2,3-d]pyrimidin-1(2H)-yl)ethoxy)propanenitrile], the MIC in assay [1] (setting [14]), in assay [2] (setting [15]) and in assay [3] (setting [16]) was greater than 4.1 µg/mL in each case. Further, the IC50 lay within 10 to 40 nM in assay [4] and 0.6 to 3 nM in assay [13].
